Patent US5424442A, “Water-soluble methine compounds useful in photographic silver halide emulsion containing the same” (Fuji Photo Film Co., Ltd., priority 1990, dated 1995)

How the values were obtained:
[1] = Solubility in solvents (dissolution in incubator, filtration through microfilter, visible absorption); type: physicochemical; details: water; Table 3; read-out: Solubility in Water
Description: The solubility of some of the compounds within formula (I) was accurately measured.
The measurement of solubility was made in the following manner.

[2] = Spectral sensitization of photographic silver halide emulsion; parameters: Yellow filter sensitivity (SY) / Red filter sensitivity (SR): scale not given here; details: Table 5
Protocol: A silver halide emulsion comprising pure silver bromide and having a cubic crystal form (the area ratio of the plane to the entire surface area of grain being 92%) was prepared and subjected to a sulfur sensitization treatment. The average diameter of silver halide grains contained in the emulsion was 0.68 μm, and 0.74 mol of silver halide per kg of emulsion was contained in the emulsion. One kg of the emulsion was weighed in each of pots. An aqueous solution of each of the compounds of formula (I) indicated in Tables 4 and 5 was added to the pot, and the mixture was mixed with stirring at 40° C. For the purpose of comparison, comparative compounds 1 and 2 wherein counter ion was iodide were dispersed in water and added to respective pots.
Further, 4-hydroxy-6-methyl-1,3,3a,7-tetraazaindene in an amount of 0.1 g/kg of emulsion, sodium salt of 2,4-dichloro-6-hydroxy-1,3,5-triazine in an amount of 0.1 g/kg of emulsion and sodium dodecylbenzenesulfonate in an amount of 0.1 g/kg of emulsion in order were added thereto. The emulsion was then coated on a polyethylene terephthalate film to obtain a photographic material.
Each of these samples was exposed through an optical wedge for 5 seconds by using a yellow filter (SC-50, a product of Fuji Photo Film Co., Ltd.) or a red filter (SC-60, a product of Fuji Photo Film Co., Ltd.) and tungsten light (5400° K.).
A spectrogram was obtained by using a grating spectrograph having a tungsten light source of 2666° K., and the maximum sensitization was measured.
After exposure, the samples were developed at 20° C for 4 minutes by using the following developing solution. The density of each of the developed films was measured by using a densitometer (manufactured by Fuji Photo Film Co., Ltd. Spectral sensitivity, that is, yellow filter sensitivity (SY) or red filter sensitivity (SR), sensitivity (SB) in the sensitive region inherent in silver halide, and fog were determined. Sensitivity was determined when the standard point of optical density was referred to as (Fog+0.2). Composition of Developing Solution […]
Two volumes of water were added thereto to obtain a working solution when used.

solubility at 12 h [1]: 2100 µg/mL
SMILES: CCn1c(=CC2=CC(=Cc3sc4ccccc4[n+]3CC)Oc3ccccc32)sc(=C2Sc3ccc(OC)cc3N2C)c1=O [Compound 150]
Red filter sensitivity (SR) ([2]; red filter SC-60, 5 seconds exposure, standard point Fog+0.2): 905
Maximum Sensitization ([2]; spectrogram, tungsten light source of 2666° K.): 695 nm
